How the values were obtained:
hERG potassium channel = biological target: T1, hERG potassium channel (Homo sapiens, UniProt Q12809); experiment: Determination of potassium channel blockade of hERG (whole-cell patch clamp, Qpatch); type: cell-based; conditions: HEK293 cells stably expressing hERG, tail current, 24° C.
T1 construct: host or cells: HEK293
Protocol: Example 59: Determination of Potassium Channel Blockade of hERG
The experimental methods are in follows:
extracellular fluid: 140 mM NaCl, 3.5 mM KCl, 1 mM MgCl2, 2 mM CaCl2, 10 mM D-glucose, 10 mM HEPES, 1.25 mM NaH2PO4, pH=7.40
ISE Internal Solution: 20 mM KCl, 115 mM K-aspartate, 1 mM MgCl2, 5 mM EGTA, 10 mM HEPES, 2 mM Na2-ATP, pH=7.2
Cell culture: HEK293 cell line with stable expression of hERG potassium channel was used, and hERG potassium channel cells were purchased from Creacell (catalog number: A-0320). It was cultured in DMEM medium containing 10 fetal bovine serum and 0.8 mg/mL G418 at 37° C. and a carbon dioxide concentration of 5%. Take out the old medium and wash once with PBS, then add 2 mL of TrypLE™ Express solution and incubate at 37° C. for about 1 min. When the cell detaches from the bottom of the dish, add approximately 5 mL of complete medium pre-warmed at 37° C. Gently pipette the cell suspension with a pipette to detach the aggregated cells. […]
Each drug concentration is set for two administrations for at least 5 minutes. The tested compound and the compound-free external fluid acts on the cells sequentially from low to high concentration, and each cell uses the current detected in the compound-free exo-liquid as its own control group, and the detection of the two cells is repeated independently. […]

[1] = system: human bladder cancer cells (RT4); experiment: Proliferation inhibition of human bladder cancer cells RT4 (CellTiter-Glo); type: cell-based; conditions: Homo sapiens, RT-4, 72 h, RT4, 3 days
Protocol: (§1) Using the CellTiter-Glo<TM>Live Cell Assay Kit, The inhibitory effect of the test compound on the proliferation of human gastric cancer cells (SNU-16) and FGFR3 high expression and FGFR3 fusion of FGFR3-TACC3 fused human bladder cancer cells (RT4) was determined. Among them, RT4 medium is added with fetal bovine serum and McCoy's 5A medium with a final concentration of 10%.
(§2) Test steps: SNU-16 and RT4 cells that have reached 80% cell confluency were digested by trypsin, centrifuged and re-suspended for counting, and 3500 and 6000 cells/mL of SNU-16 and RT4 cell suspensions were prepared with medium, respectively. Add a 96-well cell culture plate (90 μL/well) and place in a cell culture incubator containing 5% CO2 at 37° C. […] The diluted compound stock solution was further diluted with SNU-16 and RT4 medium and the diluted mixture was transferred to the corresponding cell plates, respectively. […] Mix and centrifuge and then place in a cell culture incubator containing 5% CO2 for 3 days at 37° C. Take out the 96-well cell culture plate and add CellTiterGlo (CTG, Chemiluminescent Cell Viability Assay) reagent (100 L/well. Mix and centrifuge, and then incubate for 10 min at room temperature. After gentle shaking, the absorbance at 450 nm wavelength was determined on the SpectraMax M5 Reader, and the absorbance at 650 nm was used as a reference (i.e., 450 nm absorbance −650 nm absorbance) to calculate the suppression.

FGFR1 = FGFR1 (Homo sapiens, UniProt P11362); experiment: In vitro activity inhibition test for kinase FGFR1
Sequence of FGFR1 (P11362 22-822): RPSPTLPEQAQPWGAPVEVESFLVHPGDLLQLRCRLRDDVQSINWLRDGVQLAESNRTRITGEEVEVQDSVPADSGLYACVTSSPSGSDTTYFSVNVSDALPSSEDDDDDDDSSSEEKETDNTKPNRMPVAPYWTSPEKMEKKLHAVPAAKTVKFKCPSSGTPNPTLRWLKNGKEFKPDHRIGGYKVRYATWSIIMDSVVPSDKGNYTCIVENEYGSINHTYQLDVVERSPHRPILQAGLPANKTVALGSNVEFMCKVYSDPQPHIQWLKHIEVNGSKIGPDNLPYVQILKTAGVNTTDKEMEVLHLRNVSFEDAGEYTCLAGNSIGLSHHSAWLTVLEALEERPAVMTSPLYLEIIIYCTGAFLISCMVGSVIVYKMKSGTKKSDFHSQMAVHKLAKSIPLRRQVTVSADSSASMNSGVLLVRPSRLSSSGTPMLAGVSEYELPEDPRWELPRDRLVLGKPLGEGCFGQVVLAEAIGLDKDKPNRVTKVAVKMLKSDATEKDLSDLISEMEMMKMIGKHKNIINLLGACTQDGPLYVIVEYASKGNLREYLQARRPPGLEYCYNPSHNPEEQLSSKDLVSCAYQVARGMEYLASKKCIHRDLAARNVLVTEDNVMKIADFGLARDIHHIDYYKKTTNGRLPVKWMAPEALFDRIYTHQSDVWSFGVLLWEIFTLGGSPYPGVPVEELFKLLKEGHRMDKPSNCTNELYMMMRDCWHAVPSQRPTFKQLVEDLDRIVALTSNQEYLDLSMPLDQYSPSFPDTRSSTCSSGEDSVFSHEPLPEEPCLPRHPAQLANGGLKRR
Protocol: (§3) In Vitro Activity Inhibition Test for Kinases FGFR1, FGFR2, FGFR3 and FGFR4
(§4) The activity of FGFR1, FGFR2, FGFR3 and FGFR4 protein kinases was determined by Caliper mobility shift assay. Perform a 4-fold gradient dilution from a working concentration of 0.2 mM in DMSO, diluting 10 concentrations. Add 2 μL of compound to 78 μL of 1× compound buffer. There were 10 points each for the negative control and the positive control. Shake the board on the rocker for 20 min. […] The final concentration of DMSO was 0.5%.

FGFR2 = FGFR2 (Homo sapiens, UniProt P21802); experiment: In vitro activity inhibition test for kinase FGFR2; type: biochemical; conditions: kinase assay, 25° C.; read-out: Inhibition of separase IC50 (nM) FGFR2
Sequence of FGFR2 (P21802 22-821): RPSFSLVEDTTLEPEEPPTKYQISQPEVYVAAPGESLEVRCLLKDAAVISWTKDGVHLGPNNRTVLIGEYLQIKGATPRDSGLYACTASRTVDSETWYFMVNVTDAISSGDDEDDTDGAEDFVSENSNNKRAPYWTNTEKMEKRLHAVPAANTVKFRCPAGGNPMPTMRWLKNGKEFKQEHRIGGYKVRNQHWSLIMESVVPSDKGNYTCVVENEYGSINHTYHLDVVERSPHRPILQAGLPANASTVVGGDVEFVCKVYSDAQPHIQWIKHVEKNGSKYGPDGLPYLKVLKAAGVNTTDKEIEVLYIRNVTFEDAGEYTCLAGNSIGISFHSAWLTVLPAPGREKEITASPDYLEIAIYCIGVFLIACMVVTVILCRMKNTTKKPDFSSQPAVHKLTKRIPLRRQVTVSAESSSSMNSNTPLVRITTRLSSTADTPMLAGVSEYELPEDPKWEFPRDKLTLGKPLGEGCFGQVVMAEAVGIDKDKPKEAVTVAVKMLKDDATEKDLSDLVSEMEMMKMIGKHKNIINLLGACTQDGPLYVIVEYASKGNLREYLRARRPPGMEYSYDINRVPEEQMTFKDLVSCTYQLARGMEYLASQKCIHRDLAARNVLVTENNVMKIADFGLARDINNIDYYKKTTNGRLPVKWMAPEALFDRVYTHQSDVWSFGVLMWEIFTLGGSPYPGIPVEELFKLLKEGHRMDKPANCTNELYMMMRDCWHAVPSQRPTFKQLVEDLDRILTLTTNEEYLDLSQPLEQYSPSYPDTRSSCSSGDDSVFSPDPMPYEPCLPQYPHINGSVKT

[2] = system: human gastric cancer cells (SNU-16); experiment: Proliferation inhibition of human gastric cancer cells SNU-16 (CellTiter-Glo); type: cell-based; conditions: 72 h, SNU-16, 3 days
Protocol: as §1, §2

FGFR3 = FGFR3 (Homo sapiens, UniProt P22607); experiment: In vitro activity inhibition test for kinase FGFR3;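 also: FGFR3 kinase activity read by Caliper mobility shift assay, compounds run as 10-point 4-fold dilution series, final DMSO 0.5%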
Sequence of FGFR3 (P22607 23-806): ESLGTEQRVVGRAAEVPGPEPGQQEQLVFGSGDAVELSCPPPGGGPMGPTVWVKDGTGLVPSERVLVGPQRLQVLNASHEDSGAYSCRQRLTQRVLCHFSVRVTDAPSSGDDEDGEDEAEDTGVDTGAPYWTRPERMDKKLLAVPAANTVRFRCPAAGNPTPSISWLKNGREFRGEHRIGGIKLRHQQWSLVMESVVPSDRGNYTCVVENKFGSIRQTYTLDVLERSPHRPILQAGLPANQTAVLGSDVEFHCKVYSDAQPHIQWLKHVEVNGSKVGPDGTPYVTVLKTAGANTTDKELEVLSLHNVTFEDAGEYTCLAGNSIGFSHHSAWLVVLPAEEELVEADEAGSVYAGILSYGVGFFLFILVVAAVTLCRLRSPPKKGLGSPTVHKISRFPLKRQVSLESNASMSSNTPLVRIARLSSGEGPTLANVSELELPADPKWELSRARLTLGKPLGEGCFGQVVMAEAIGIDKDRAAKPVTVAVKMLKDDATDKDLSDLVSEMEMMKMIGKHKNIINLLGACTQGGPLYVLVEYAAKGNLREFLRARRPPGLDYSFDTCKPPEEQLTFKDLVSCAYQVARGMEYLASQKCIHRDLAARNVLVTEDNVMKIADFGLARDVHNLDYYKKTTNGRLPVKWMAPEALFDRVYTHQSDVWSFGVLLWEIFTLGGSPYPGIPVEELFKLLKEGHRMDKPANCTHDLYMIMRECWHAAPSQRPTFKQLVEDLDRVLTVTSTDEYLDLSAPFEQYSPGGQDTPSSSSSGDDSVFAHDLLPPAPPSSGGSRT
Protocol: as §3, §4

FGFR4 = FGFR4 (Homo sapiens, UniProt P22455); experiment: In vitro activity inhibition test for kinase FGFR4;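 also: caliper mobility shift assay of FGFR4 kinase activity, compounds tested as 10-point 4-fold dilution series with 0.5% DMSO final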
Sequence of FGFR4 (P22455 22-802): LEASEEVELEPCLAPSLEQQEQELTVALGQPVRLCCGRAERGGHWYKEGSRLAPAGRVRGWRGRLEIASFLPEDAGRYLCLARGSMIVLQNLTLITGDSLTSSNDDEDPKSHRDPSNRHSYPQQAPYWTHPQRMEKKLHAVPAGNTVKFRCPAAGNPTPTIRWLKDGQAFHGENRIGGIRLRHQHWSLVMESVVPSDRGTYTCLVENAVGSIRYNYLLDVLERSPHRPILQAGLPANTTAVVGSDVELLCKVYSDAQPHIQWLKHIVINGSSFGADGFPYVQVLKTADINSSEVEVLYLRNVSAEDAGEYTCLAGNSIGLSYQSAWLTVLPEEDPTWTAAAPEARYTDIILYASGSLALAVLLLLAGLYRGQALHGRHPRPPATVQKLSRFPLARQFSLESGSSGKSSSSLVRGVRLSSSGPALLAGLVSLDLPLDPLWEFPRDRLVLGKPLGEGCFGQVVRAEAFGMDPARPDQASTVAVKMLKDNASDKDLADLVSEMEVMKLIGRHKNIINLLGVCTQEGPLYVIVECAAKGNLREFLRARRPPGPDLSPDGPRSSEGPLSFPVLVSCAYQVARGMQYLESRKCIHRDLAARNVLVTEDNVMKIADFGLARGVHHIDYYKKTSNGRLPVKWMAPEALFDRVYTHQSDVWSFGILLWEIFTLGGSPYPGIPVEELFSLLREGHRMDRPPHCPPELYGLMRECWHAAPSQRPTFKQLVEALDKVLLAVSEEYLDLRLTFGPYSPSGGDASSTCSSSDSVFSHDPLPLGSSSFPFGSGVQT
Protocol: as §3, §4

Hep3B cells = experiment: Human hepatoma cell Hep3B survival test (CellTiter-Glo); type: cell-based; conditions: Homo sapiens, treated 72 hours, read-out: inhibitory activity on Hep3B cell proliferation IC50
Protocol: The Hep3B cell line of human liver cancer is derived from ATCC. Cells are supplemented with McCoy's 5A medium and additionally added fetal bovine serum (IOFBS). Cells are kept in the medium at 37° C., humidity at 95%, and carbon dioxide at 500. Hep3B cells were seeded in 96-well plates at a density of 3500 cells per well with a cell suspension volume of 90 μL per well and cultured at 37° C. in a cell culture incubator containing 500 CO2. […] The cells were then placed in a 37° C. incubator and treated with compounds for 72 hours.

T1 sequence (Q12809 whole entry): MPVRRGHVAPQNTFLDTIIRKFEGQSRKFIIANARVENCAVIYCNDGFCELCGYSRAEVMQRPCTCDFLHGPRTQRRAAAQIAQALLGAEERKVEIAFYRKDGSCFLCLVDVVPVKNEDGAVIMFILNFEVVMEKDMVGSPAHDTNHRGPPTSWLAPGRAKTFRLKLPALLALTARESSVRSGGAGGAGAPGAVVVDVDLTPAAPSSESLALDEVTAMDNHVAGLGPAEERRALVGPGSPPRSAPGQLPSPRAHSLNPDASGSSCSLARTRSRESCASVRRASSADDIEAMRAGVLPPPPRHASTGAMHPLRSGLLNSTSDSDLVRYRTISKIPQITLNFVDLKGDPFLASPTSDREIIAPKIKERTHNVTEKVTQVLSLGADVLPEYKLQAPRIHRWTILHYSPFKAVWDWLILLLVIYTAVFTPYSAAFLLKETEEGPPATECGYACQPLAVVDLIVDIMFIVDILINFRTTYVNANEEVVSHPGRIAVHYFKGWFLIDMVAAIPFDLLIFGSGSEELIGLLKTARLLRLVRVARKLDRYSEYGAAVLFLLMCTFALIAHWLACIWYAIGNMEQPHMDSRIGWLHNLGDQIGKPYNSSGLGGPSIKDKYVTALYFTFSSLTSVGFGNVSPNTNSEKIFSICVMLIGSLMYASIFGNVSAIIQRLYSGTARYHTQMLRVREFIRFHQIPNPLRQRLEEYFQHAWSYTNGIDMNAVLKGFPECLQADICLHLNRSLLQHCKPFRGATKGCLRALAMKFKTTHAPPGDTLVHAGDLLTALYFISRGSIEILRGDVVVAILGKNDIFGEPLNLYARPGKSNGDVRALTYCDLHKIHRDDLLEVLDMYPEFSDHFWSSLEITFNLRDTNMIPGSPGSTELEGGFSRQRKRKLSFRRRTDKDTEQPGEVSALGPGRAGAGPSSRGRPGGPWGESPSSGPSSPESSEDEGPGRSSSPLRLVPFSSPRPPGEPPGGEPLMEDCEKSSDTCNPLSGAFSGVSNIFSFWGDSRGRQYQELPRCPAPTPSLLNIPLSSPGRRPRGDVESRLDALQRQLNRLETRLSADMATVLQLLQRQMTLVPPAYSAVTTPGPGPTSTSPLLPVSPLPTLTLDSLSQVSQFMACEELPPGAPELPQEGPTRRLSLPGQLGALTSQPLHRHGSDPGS

IC50 [1] [nM] | IC50 (FGFR1) [nM] | IC50 (FGFR2) [nM] | IC50 [2] [nM] | IC50 (FGFR3) [nM] | IC50 (FGFR4) [nM] | Compound | inhibition effect on the hERG channel (hERG potassium channel) | IC50 (Hep3B cells) [nM]
1.3 | < 10 | < 10 | 0.025 | < 10 | < 10 | C=CC(=O)N1CC[C@H](n2nc(C#Cc3c(F)c(OC)cc(OC)c3F)c3c(N)n[nH]c(=O)c32)C1 [Compound 28, (S)-1-(1-acryloylpyrrolidin-3-yl)-4-amino-3-((2,6-difluoro-3,5-dimethoxyphenyl)ethynyl)-1,6-dihydro-7H-pyrazolo[3,4-d]pyridazin-7-one] | weak or no inhibition effect | –
3.4 | < 10 | < 10 | < 0.015 | < 10 | < 10 | C=CC(=O)N1CC[C@H](n2cc(-c3cc4cc(C)cc(OC)c4s3)c3c(N)n[nH]c(=O)c32)C1 [Compound 38, (S)-1-(1-acryloylpyrrolidin-3-yl)-4-amino-3-(7-methoxy-5-methylbenzo[b]thiophen-2-yl)-1,6-dihydro-7H-pyrrolo[2,3-d]pyridazin-7-one] | moderate inhibitory effect | < 10

Reference: US20240109896A1, “FGFR KINASE INHIBITOR AND USE THEREOF” (YA THERAPEUTICS INC, priority 2021, published 2024)
